We go through 49 compounds from the Kinase Knowledgebase extract (Sharma et al. 2016).

pIC50: −log10 of the molar value. Some results are limits rather than exact numbers.

The assay has as its target PIK3CG (human) (UniProt P48736). The assay can be described thus: Assessment of PIK3CG Kinase Activity.

PIK3CG (human), sequence (P48736 whole entry, looked up): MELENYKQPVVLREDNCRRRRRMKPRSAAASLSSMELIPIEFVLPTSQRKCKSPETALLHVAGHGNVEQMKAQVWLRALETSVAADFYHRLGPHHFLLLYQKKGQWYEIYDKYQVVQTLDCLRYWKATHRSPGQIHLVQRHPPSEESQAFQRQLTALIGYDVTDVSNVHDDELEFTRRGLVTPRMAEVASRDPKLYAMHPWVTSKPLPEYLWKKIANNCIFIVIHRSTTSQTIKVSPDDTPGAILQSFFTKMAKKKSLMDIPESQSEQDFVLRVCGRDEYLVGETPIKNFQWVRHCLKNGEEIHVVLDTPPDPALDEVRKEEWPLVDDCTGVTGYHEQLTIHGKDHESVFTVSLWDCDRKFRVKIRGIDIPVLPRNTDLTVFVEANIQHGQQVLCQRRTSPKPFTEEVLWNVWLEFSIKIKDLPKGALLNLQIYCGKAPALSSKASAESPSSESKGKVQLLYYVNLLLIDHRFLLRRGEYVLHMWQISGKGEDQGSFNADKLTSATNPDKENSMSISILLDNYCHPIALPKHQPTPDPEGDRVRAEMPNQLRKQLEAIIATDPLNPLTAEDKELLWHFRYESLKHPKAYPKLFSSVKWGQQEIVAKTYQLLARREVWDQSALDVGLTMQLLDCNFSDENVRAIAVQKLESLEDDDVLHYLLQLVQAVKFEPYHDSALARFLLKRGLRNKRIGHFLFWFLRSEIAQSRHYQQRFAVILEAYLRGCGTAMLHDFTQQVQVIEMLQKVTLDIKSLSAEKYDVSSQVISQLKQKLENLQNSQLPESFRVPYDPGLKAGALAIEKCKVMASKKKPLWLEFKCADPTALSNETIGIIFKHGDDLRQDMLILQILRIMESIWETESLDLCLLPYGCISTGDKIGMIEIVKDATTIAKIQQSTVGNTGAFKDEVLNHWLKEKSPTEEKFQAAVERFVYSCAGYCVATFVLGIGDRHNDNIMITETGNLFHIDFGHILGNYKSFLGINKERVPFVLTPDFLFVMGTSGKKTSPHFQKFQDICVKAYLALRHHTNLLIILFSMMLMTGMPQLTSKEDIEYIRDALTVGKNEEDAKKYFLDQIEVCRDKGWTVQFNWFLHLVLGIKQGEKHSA

On to `O=C(Nc1nc2c(s1)-c1nc(-c3ccccc3)ncc1CC2)N1CCCC1`, for which the pIC50 (usually the IC50 on a negative log10 scale, so that one unit is a factor of ten) is over 6.10.

`Cc1ccccc1-n1ncc2c1C1SC(N)=NC1C2` (centres undefined) had a pIC50 of over 6.10.

`CC(=O)Nc1nc2c(s1)-c1nn(C(=O)C3CC3)cc1CC2` had a pIC50 of over 6.10.

Take `CCCC(=O)n1ncc2c1-c1sc(NC(C)=O)nc1CC2`: the pIC50 is over 6.10.

As to `CC(=O)Nc1nc2c(s1)-c1nc(-c3ccc(O)cc3)ncc1CC2`, the pIC50 is over 6.10.

For `CC(=O)Nc1nc2c(s1)-c1nc(N3CCCC(CN)C3)ncc1CC2` (centres undefined), the negative-log IC50 (pIC50) is over 6.10.

Compound `CC(=O)Nc1nc2c(s1)-c1c(cnn1-c1ccc(C(=O)NC3CCC(=O)O3)cc1)CC2` (centres undefined) gave a pIC50 of over 6.10.

`CC(=O)Nc1nc2c(s1)-c1c(cnn1-c1ccc(C(=O)N3CCOCC3)cc1)CC2` gave a pIC50 of over 6.10.

`CC(=O)Nc1nc2c(s1)-c1nc(N3CCCOCC3)ncc1CC2` had a pIC50 of over 6.10.

`CC(=O)Nc1nc2c(s1)-c1c(cnn1-c1ccc(C(=O)O)cc1)CC2`: the negative-log IC50 (pIC50) is over 6.10.

Consider `CC(=O)Nc1nc2c(s1)-c1c(cnn1-c1ccc(CC(=O)NCC(=O)N(C)C)cc1)CC2`, for which the negative-log IC50 (pIC50) was over 6.10.

`CC(=O)Nc1nc2c(s1)-c1nc(C3CCCCC3)ncc1CC2`: the negative-log IC50 (pIC50) is over 6.10.

For the compound `CC(=O)Nc1nc2c(s1)-c1c(cnn1-c1ccc(C(=O)N[C@@H](Cc3cccnc3)C(N)=O)cc1Cl)CC2`, the pIC50 is over 6.10.

With `COCc1nn(-c2ccc(C(=O)N(C)C3CCN(C)CC3)cc2Cl)c2c1CCc1nc(NC(C)=O)sc1-2`, the negative-log IC50 (pIC50) was over 6.10.

Consider `NCC(=O)Nc1nc2c(s1)-c1c(cnn1-c1ccccc1)CC2`, for which the pIC50 is over 6.10.

`CC(=O)Nc1nc2c(s1)-c1c(cnn1-c1cc(S(N)(=O)=O)ccc1Cl)CC2` showed a pIC50 of over 6.10.

`CC(=O)Nc1nc2c(s1)-c1c(cnn1-c1cc(O)cc(Cl)c1)CC2`: the negative-log IC50 (pIC50) is over 6.10.

Turning to `CC(=O)Nc1nc2c(s1)-c1c(cnn1-c1ccc(C(=O)NC(C)(C)CN3CCN(C)CC3)cc1)CC2`, the negative-log IC50 (pIC50) is over 6.10.

The compound `CC(=O)Nc1nc2c(s1)-c1c(cnn1-c1ccc(C(=O)N3CCC(N)CC3)cc1)CC2` showed a pIC50 of over 6.10.

`CCC(=O)Nc1nc2c(s1)-c1c(cnn1-c1ccccc1)CC2` showed a negative-log IC50 (pIC50) of over 6.10.

In the case of `CC(=O)Nc1nc2c(s1)-c1nc(COc3ccccc3Cl)ncc1CC2`, the pIC50 was over 6.10.

Compound `CC(=O)Nc1nc2c(s1)-c1c(c(-c3ccccn3)nn1-c1ccccc1C)CC2` gave a pIC50 of over 6.10.

Turning to `CC(=O)Nc1nc2c(s1)-c1c(cnn1CCC(C)C)CC2`, the pIC50 was over 6.10.

`CC(=O)Nc1nc2c(s1)-c1c(cnn1-c1ccc(C(=O)N(C)Cc3ccccn3)cc1)CC2` had a pIC50 of over 6.10.

Take `CC(=O)Nc1nc2c(s1)-c1c(cnn1-c1ccc(CC(=O)N3CCC4(CC3)CNC(=O)O4)cc1)CC2`: the pIC50 is over 6.10.

As for `CC(=O)Nc1nc2c(s1)-c1c(c(-c3ccoc3)nn1-c1ccccc1)CC2`, the pIC50 is over 6.10.

Compound `CC(=O)Nc1nc2c(s1)-c1c(cnn1-c1ccc(S(C)(=O)=O)cc1)CC2` showed a negative-log IC50 (pIC50) of over 6.10.

The compound `CC(=O)Nc1nc2c(s1)-c1nn(C(=O)c3ccco3)cc1CC2` had a pIC50 of over 6.10.

For the compound `CC(=O)Nc1nc2c(s1)-c1c(cnn1-c1ccc(C(=O)N3CCC(N4CCCCC4)CC3)cc1Cl)CC2`, the negative-log IC50 (pIC50) was over 6.10.

The compound `CC(=O)Nc1nc2c(s1)-c1nn(C(C)=O)cc1CC2` gave a pIC50 of over 6.10.

With `CC(=O)Nc1nc2c(s1)-c1c(cnn1-c1ccc(CC(=O)O)cc1)CC2`, the pIC50 is over 6.10.

`CC(=O)Nc1nc2c(s1)-c1c(cnn1-c1ccc(CC(=O)N3CCC(N4CCNC4=O)CC3)cc1)CC2` gave a pIC50 of over 6.10.

In the case of `CC(=O)Nc1nc2c(s1)-c1c(cnn1-c1ccccc1Br)C2`, the pIC50 is over 6.10.

`CC(=O)Nc1ncc2c(n1)-c1sc(NC(C)=O)nc1CC2` had a negative logarithm of the IC50 (pIC50) of over 6.10.

`CC(=O)Nc1nc2c(s1)-c1c(c(-c3ccco3)nn1-c1ccccc1)CC2`: the pIC50 was over 6.10.

As for `CC(=O)Nc1nc2c(s1)-c1c(cnn1-c1ccc(C(=O)N3CCC(C(N)=O)CC3)cc1)CC2`, the pIC50 was over 6.10.

Take `CC(=O)Nc1nc2c(s1)-c1c(cnn1-c1ccc(C(=O)NCCc3cccnc3)cc1)CC2`: the pIC50 is over 6.10.

`CC(=O)Nc1nc2c(s1)-c1c(cnn1-c1ccc3nc[nH]c3c1)CC2` had a pIC50 of over 6.10.

`CC(=O)Nc1nc2c(s1)-c1nc(N3CCCC3=O)ncc1CC2` had a negative logarithm of the IC50 (pIC50) of over 6.10.

On to `CC(C)c1nn(-c2ccccc2Cl)c2c1CCc1nc(NC(N)=O)sc1-2`, for which the negative-log IC50 (pIC50) was over 6.10.

The compound `CC(=O)Nc1nc2c(s1)-c1c(c(C(C)C)nn1-c1ccc(C(=O)N(C)Cc3ccncc3)cc1Cl)CC2` gave a pIC50 of over 6.10.

Compound `CNCCNC(=O)Nc1nc2c(s1)-c1nc(-c3ccccc3)ncc1CC2` had a pIC50 of over 6.10.

As to `CC(=O)Nc1nc2c(s1)-c1c(cnn1-c1ccc(C(=O)N[C@H]3CC[C@H](N)CC3)cc1)CC2`, the pIC50 is over 6.10.

In turn, `CC(=O)Nc1nc2c(s1)-c1c(cnn1-c1ccc(CC(=O)N3CCCC3c3ccccn3)cc1)CC2` (centres undefined) showed a negative logarithm of the IC50 (pIC50) of over 6.10.

Compound `CC(=O)Nc1nc2c(s1)-c1c(cnn1-c1ccc(CC(=O)N(C)CC(=O)N(C)C)cc1)CC2` gave a pIC50 of over 6.10.

Compound `CC(=O)Nc1nc2c(s1)-c1c(cnn1-c1ccc(C(=O)N[C@@H](Cc3cccc(Cl)c3)C(N)=O)cc1Cl)CC2` had a negative-log IC50 (pIC50) of over 6.10.

In turn, `CC(=O)Nc1nc2c(s1)-c1c(cnn1-c1ccc(C(=O)Nc3ccc(C4CCN(C)CC4)cc3)cc1)CC2` showed a negative-log IC50 (pIC50) of over 6.10.

In the case of `CNC(=O)c1ccc(-n2nc(-c3ccco3)c3c2-c2sc(NC(C)=O)nc2CC3)c(Cl)c1`, the pIC50 was over 6.10.

Consider `CC(=O)Nc1nc2c(s1)-c1c(cnn1-c1ccc(C(=O)N3CCN(c4ccncc4)CC3)cc1)CC2`, for which the pIC50 is over 6.10.
